Laboratory results from patent US7820825B2, “N-substituted-azacyclylamines as histamine-3 antagonists” (Wyeth LLC, priority 2006, dated 2010).

| melting point [°C] | SMILES |
| --- | --- |
| 73 to 78 | Cn1cc(Cc2ccc(C(=O)N3CC[C@H](N4CCCC4)C3)cc2)c2ccccc21 [Example 229, (3′S)-1-{4-[(1-methyl-1H-indol-3-yl)methyl]benzoyl}-1,3′-bipyrrolidine] |
| 101 to 105 | CN(C)[C@H]1CCN(C(=O)c2ccc(Cc3cn(C)c4ccccc34)cc2)C1 [Example 230, (3S)-N,N-dimethyl-1-{4-[(1-methyl-1H-indol-3-yl)methyl]benzoyl}pyrrolidin-3-amine] |
